# Laboratory results from article PMC12067741, “Inhibition of SOD1 trimerization is a novel drug target for ALS disease” (Translational Neurodegeneration, 2025).
# What was measured:
# [1] = BBB-PAMPA (parallel artificial membrane permeability assay); conditions: for recovery at 4 h, 10 µM: PAMPA
# Text: Next, we checked the basic in vitro ADME test including pharmacokinetics, plasma protein binding, CYP (Cytochrome P450) inhibition, metabolic stability and blood–brain barrier (BBB) permeability. […] We also plan to test safety panel assay in the future to obtain safety data for the drug.
# Fig. S8. […]
# ALS = conditions: cited from earlier work
# SOD1^G93A−Tg mice = system: SOD1^G93A−Tg mice; design: method as in PMID 34912047; conditions: cited from earlier work
# [2] = Pharmacokinetics in mice (compound screening, IV/PO); assay type: in vivo, mouse
# Protocol: Fig. S1. Optimized inhibitor reduces SOD1 aggregation. a, Mutant SOD1s induced WT-SOD1 aggregation. Testing the selected chemicals to check the inhibitory effect on SOD1 aggregation .HEK293 cells were transfected with MT-SOD1 vectors (A4V, G 93 A) and treated with selected chemicals (5 mM). After incubation, transfected cells were harvested with TNNI buffer and fixed with 0.04% glutaraldehyde (Glu) for 30min. Samples were separated using SDS-PAGE. b-c, PRG-A-04 inhibited SOD1 inclusions in SK-N-SH cells. (b) Cells expressing MT-SOD1 vectors were treated with PRG-A-04 ([…]) for 24 hr. After incubation, cells were fixed with 4 % PFA and observed under the fluorescence microscope. (c) Cells with SOD1 inclusions (white arrows; strong intensity of SOD1) were counted by photomicrographs and the percentages were shown with standard deviation (SD). For cell counting, ten fluorescence images were randomly selected. Counting of cells were performed by three independent observers, who were blinded to transfection or chemical treatment group; two-tailed Student’s t-test. NS; Not significant, ****P < 0.001, d, PRG-A- […]
# degradationin blood as well as gastro-intestinal tract.IV; intravenous injected group, PO; Per Os administrated group e, […]
# show cytotoxicity. To know the toxic effect of PRG-A-04 , human normal fibroblast (f) and neuron cells (g) were incubated with PRG -A-04 for 48 hr dose dependently and measured the viability through MTT assay .“Con” means Dimethyl sulfoxide (DMSO) -treated control . The data are normalized to DMSO-treated cells. n=3 independent experiments; two-tailed Student’s t-test.NS; Not significant, *P < 0.05, **P < 0.01, ***P < 0.005.
# WT-WT SOD1 interaction = system: WT-WT SOD1 interaction; design: method as in PMID 34912047; conditions: cited from earlier work
# [3] = biological target: misfolding-specific SOD1 antibody (Mis-SOD1 Ab); assay: dot blot assay, band intensity quantified with Image J; conditions: normalised to Con, read off a plot
# [4] = biological target: pan-SOD1 antibody (Pan-SOD1 Ab); assay: as above; conditions: normalised to Con, read off a plot
# MT-SOD1 protein uptake = assay: SOD1 recombinant protein uptake into neuronal cells; assay type: cell-based; conditions: SH-SY5Y cells, Dynasore 50 mM (so in the source), 6 hr
# Protocol: For monitoring the localization of SOD1 recombinant proteins, SOD1-Halo proteins were added in neuronal cultures for 2 h and then the cells were incubated with the cell-permeable HaloTag-fluorscent ligands (diAcFAM) for 30 min. After incubation, cells were washed with serum-free culture medium three times and incubated in serum-containing culture medium in a CO2 incubator for 30 min to wash out unbound ligand. Fluorescent images of live cells were obtained using a commercial Tomocube HT-2H holotomography system (Daejeon, Republic of Korea).
# We hypothesized that PRG-A-04, which targets trimeric SOD1, would inhibit SOD1 protein uptake. MT-SOD1 proteins were incubated with PRG-A-04 in vitro, and then cells were treated with the mixture. The MT-SOD1 protein uptake was reduced by incubation with PRG-A-04, as was SOD1 oligomerization (Fig. 3f, g). […] However, whether neuron-specific receptors on synapses, physiological conditions (neuronal cellular stress such as ion deficiency, environmental conditions such as hypoxia) and other ALS-related genetic causes (TDP-43, FUS, etc.) are essential for SOD1 uptake requires further study.
# Fig. S3 SOD1 protein uptake into the cells through endocytosis. a, The uptake of SOD1 proteins was achieved by endocytosis. SH-SY5Y cells were treated with SOD1 recombinant proteins and endocytosis inhibitor (Dynasore; […]) for 6hr. After incubations, cells were harvested with RIPA and separated by SDS-PAGE. S.E: short exposure, L.E: long exposure. b, The recombinant MT-SOD1 protein is located intracellular space in neuron cells. SOD1-Halo proteins (3 μg/ml) were treated in neuron cells for 2 hr and incubated with HaloTag-fluorscent ligands (cellpermeable ligands; diAcFAM) for 30 min. After incubation, cells were washed with fresh culture medium three times and.
# Incubate cells in complete culture medium at CO2 incubator for 30 min to wash unbound ligand. The fluorescence images of live cells were obtained using a commercial holotomography (HT-2H). White arrows indicate the intensity of SOD1. BF; Bright field, Scale bar; […].
# [5] = Con (no PRG-A-04), Mis-SOD1 signal over Pan-SOD1 signal
# [6] = PRG-A-04 treated, Mis-SOD1 signal over Pan-SOD1 signal
# Sequence of WT-SOD1 (wild-type SOD1) expressed in transfected cells (from UniProt P00441) G93A (P00441 whole entry, looked up, stated change not applied): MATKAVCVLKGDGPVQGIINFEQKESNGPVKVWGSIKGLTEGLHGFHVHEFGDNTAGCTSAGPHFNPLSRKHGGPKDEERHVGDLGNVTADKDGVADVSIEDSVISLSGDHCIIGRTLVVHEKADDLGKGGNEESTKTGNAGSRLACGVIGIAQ
# Sequence of WT-SOD1 (wild-type SOD1) expressed in transfected cells (from UniProt P00441) G85R (P00441 whole entry, looked up, stated change not applied): as above
compound,measurement,setting,value
CC(C)NCC(O)COc1ccc(CC(N)=O)cc1 (stereo not shown) [Atenolol],"recovery at 4 h, 10 µM",[1],< 109%
CC1=NN(c2ccccc2)C(=O)C1 [radicava],efficacy on ALS progression,ALS,efficacy in delaying ALS progression
same,efficacy on survival rate,ALS,no efficacy on survival rate
COc1cc(C=CC(=O)OC2Cc3cc4ccc(=O)oc4cc3OC2(C)C)ccc1O (stereo not shown) [PRG-A-01],extension of lifespan of SOD1G93A-Tg mice,SOD1^G93A−Tg mice,about 10 days
same,bioavailability,[2]; in vivo,poorly bioavailable
same,degradation in blood as well as gastro-intestinal tract,"[2]; pharmacokinetics analysis, IV and PO groups (Fig. S1d)",rapid
same,effect on WT-WT SOD1 interaction,WT-WT SOD1 interaction,did not show inhibitory effects
WT-SOD1 (wild-type SOD1) expressed in transfected cells (from UniProt P00441) G85R,response,[3]; [5],1 A.U.
same,response,[3]; Con (no PRG-A-04),1 A.U.
same,response,[3]; [6],0.42 A.U.
same,response,[3]; PRG-A-04 treated,0.53 A.U.
same,response,[4]; Con (no PRG-A-04),1 A.U.
same,response,[4]; PRG-A-04 treated,1.3 A.U.
CC(C)NCC(O)COc1cccc2ccccc12 (stereo not shown) [Propranolol],Mean Pe,"[1]; BBB-PAMPA, test concentration 10 µM, incubation 4 hour",7.66 ×10⁻⁶ cm/s
same,Permeability,"[1]; BBB-PAMPA, test concentration 10 µM, incubation 4 hour, class in words",High
same,"recovery at 4 h, 10 µM",[1],82.4%
WT-SOD1 (wild-type SOD1) expressed in transfected cells (from UniProt P00441) G93A,response,[3]; [5],1 A.U.
same,response,[3]; Con (no PRG-A-04),1 A.U.
same,response,[3]; [6],0.25 A.U.
same,response,[3]; PRG-A-04 treated,0.2 A.U.
same,response,[4]; Con (no PRG-A-04),1 A.U.
same,response,[4]; PRG-A-04 treated,0.77 A.U.
"O=C(N/N=C/c1ccc(O)c(O)c1)c1cc2ccccc2cc1O [Dynasore, reference compound]",effect on SOD1 protein uptake,MT-SOD1 protein uptake,inhibited
Tofersen,effect on functional decline in clinical trials,ALS; SOD1-ALS patients,failed to improve functional decline
Nc1nc2ccc(OC(F)(F)F)cc2s1 [riluzole],efficacy on ALS progression,ALS,efficacy in delaying ALS progression
